# Experimental data as given in patent publication US9796671B2, “Aurora kinase inhibitors” (REGENTS OF THE UNIVERSITY OF MINNESOTA, priority 2012, dated 2017).
# How the values were obtained:
# Aurora B = Aurora B (Homo sapiens, UniProt Q96GD4); test: Aurora B in vitro kinase assay (histone H3 Ser10 phosphorylation, Western blot); assay type: biochemical
# Procedure: (§1) Proteins are resolved by SDS-PAGE and transferred onto polyvinylidene difluoride membranes (Millipore, Mass.), which are blocked with nonfat milk and hybridized with specific primary antibodies. The protein bands are visualized using an enhanced chemiluminescence reagent (GE Healthcare, Pittsburgh, Pa.) after hybridization with a horseradish peroxidase-conjugated secondary antibody.
# Reactions are carried out in 1× kinase buffer (25 mM Tris-HCl pH 7.5, 5 mM beta-glycerophosphate, 2 mM dithiothreitol (DTT), 0.1 mM Na3VO4, 10 mM MgCl2 and 5 mM MnCl2) containing 100 μM ATP at 30° C. for 30 minutes. Reactions are stopped and proteins detected by Western blotting.
# An in vitro kinase assay was used to determine whether Compound 1 could inhibit Aurora B kinase activity using recombinant Aurora B protein and various concentrations of Compound 1. […] The effect of Compound 1 on Aurora A kinase activity using an in vitro kinase assay was also examined.
# HCT116 cells = test: Anchorage-independent growth (soft agar colony formation); assay type: cell-based; conditions: 0.5 μM
# Procedure: FIGS. 3A and 3B. Compounds 1-8 suppress the anchorage-independent growth of HCT116 cells. The asterisk indicates a significant (* p<0.05, ** p<0.01) decrease in colony formation in cells treated with each compound compared with the DMSO treated control group. Two concentrations of each compound, 0.5 μM and 5 μM were tested. […] Compounds 2 and 4 had no effect.
# (§2) Tumor cells are suspended in basal medium Eagle (BME) medium and added to 0.6% agar, with different concentrations of Compound 1 in a base layer and a top layer of 0.3% agar. The cultures are maintained at 37° C. in a 5% CO2 incubator for 1 to 2 weeks and then colonies are counted under a microscope using the Image-Pro Plus software (v.4) program (Media Cybernetics, Silver Spring, Md.).
# HCT116 p53−/− cells = test: Soft agar assay, p53-deficient colon cancer cells; assay type: cell-based; conditions: Homo sapiens, read-out: inhibition of growth in soft agar
# Procedure: as §2
# The effect of compound 1 in a pair of colon cancer cell lines, p53 wildtype (HCT116 p53^+/+) and p53-deficient (HCT116 p53^−/−) cells was also examined to determine whether the sensitivity of cells to compound 1 directly correlates with the status of p53 in cells.
# A549 cells = test: Cell cycle analysis (flow cytometry); assay type: cell-based, human; conditions: A549, 48 hours
# Procedure: (§3) Cells are plated in 60-mm plates and treated or not treated with Compound 1 for the indicated time. At each time point, cells are fixed in 70% ethanol and stored at −20° C. for 24 h. After staining, the cell cycle distribution or apoptosis is determined using a BD FACSCalibur Flow Cytometer (BD Biosciences, San Jose, Calif.). Aurora B inhibition leads to failure in cytokinesis and abnormal exit from mitosis, which could result in polyploidy cells, cell cycle arrest, and ultimately apoptosis. The ability to induce polyploidy cells was further examined in A549 cells treated or not treated with Compound 1. […] In addition, Compound 1 treatment for 48 hours caused an increase in the number of A549 and H520 cells occupying the G2/M phase. Moreover, exposure of these cells to Compound 1 for 72 hours induced apoptosis as measured by Annexin V/PI staining. For example, exposure to 5 μM Compound 1 induced 48% or 82% apoptosis in A549 cells and H520 cells, compared to 8% or 38% in untreated control cells, respectively.
# H520 cells = test: Cell cycle analysis (flow cytometry); assay type: cell-based, human; conditions: H520, 48 hours
# Procedure: as §3
# [1] = tested on: A549 cells transfected with Aurora B shRNA; test: Anchorage-independent growth, Aurora B knockdown cells; assay type: cell-based; conditions: Homo sapiens
# Procedure: as §2
# The effect of knocking down Aurora B expression in A549 cancer cells on the cell's sensitivity to Compound 1 was evaluated. […] Compound 1 (0.5 μM) inhibited anchorage-independent growth of A549 cells transfected with mock shRNA by about 90%.
# Akt2 = Akt2 (Homo sapiens, UniProt P31751); test: Akt2 in vitro kinase assay; assay type: biochemical
# Chain of Akt2 (P31751 whole entry, species assumed): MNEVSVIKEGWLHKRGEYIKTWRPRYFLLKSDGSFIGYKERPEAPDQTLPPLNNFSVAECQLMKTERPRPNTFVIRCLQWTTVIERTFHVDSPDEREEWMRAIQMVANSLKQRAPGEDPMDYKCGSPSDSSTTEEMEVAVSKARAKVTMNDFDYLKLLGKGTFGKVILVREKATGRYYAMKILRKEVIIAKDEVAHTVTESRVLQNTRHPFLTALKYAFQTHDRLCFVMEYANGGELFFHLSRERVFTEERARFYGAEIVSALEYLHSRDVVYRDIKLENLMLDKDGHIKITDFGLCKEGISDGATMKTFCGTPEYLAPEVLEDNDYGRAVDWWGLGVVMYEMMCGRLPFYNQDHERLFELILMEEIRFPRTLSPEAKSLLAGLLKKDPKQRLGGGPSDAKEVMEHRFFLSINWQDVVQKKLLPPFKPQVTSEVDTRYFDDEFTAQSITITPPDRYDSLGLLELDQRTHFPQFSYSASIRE
# Procedure: (§4) According to the kinase profiler assay results, Akt2 also might be a potential target of Compound 1. An Akt1 and Akt2 in vitro kinase assays was performed.
# [2] = tested on: phosphorylation of Akt (Ser473), GSK3β (Ser9), p70S6K (Thr389) and S6 (Ser235,236) in A549 cells; test: Western blot of Akt and downstream signaling in cells; assay type: cell-based, human
# Text: as §1, §4
# [3] = tested on: phosphorylation of Akt (Ser473), GSK3β (Ser9), p70S6K (Thr389) and S6 (Ser235,236) in H520 cells; test: as above; assay type: cell-based, human
# Text: as §1, §4
# AMPK-alpha1 = molecular target: T1, AMPK-alpha1 (Homo sapiens, UniProt Q13131); test: Kinase profile assay (Millipore); assay type: biochemical; conditions: read-out: kinase activity compared with the control
# T1 construct: purchased Millipore
# T1 sequence (Q13131 whole entry): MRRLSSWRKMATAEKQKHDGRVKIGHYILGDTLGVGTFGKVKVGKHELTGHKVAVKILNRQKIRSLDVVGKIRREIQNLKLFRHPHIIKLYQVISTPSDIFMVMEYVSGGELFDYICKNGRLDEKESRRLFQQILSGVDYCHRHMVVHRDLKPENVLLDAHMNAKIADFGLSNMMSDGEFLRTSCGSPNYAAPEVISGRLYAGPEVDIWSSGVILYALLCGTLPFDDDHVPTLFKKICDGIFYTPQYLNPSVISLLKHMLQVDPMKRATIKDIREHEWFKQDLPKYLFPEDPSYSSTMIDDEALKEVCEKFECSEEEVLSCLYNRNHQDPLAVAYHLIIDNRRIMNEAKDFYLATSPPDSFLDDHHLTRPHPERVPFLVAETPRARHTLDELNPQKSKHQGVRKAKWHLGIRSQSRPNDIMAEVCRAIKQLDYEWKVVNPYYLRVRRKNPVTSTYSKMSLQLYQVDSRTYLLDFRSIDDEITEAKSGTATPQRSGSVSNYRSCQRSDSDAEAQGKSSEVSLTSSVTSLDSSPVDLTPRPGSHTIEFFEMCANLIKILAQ
# T1 sequence (Q9Y478 whole entry partner): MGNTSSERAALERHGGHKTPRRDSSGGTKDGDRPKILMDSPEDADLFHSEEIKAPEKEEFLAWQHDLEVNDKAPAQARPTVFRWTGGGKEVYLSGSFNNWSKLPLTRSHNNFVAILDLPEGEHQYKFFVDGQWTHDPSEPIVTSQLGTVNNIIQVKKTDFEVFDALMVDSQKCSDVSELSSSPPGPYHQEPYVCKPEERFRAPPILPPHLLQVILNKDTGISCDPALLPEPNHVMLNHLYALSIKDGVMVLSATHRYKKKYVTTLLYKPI
# T1 sequence (P54619 whole entry partner): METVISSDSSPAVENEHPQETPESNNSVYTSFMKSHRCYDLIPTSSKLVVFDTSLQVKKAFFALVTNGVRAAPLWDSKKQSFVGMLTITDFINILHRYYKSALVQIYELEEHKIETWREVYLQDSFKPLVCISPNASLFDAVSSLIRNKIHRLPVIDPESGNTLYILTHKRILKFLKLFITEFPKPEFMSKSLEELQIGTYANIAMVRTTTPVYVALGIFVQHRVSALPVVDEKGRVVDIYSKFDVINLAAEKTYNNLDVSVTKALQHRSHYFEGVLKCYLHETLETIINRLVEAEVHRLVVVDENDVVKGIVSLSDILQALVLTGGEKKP
# Procedure: (§5) A kinase profile assay was performed by Millipore, to examine other potential targets of Compound 1. Only Akt2 activity was suppressed more than 50% after 5 μM compound 1 treatment, compared with the control (Table 2). In addition, the kinase activity of Aurora A was decreased less than 25% at 5 μM Compound 1.
# AMPK-alpha2 = molecular target: T2, AMPK-alpha2 (Homo sapiens, UniProt P54646); test: Kinase profile assay (Millipore); assay type: biochemical; conditions: read-out: kinase activity compared with the control
# T2 construct: purchased Millipore
# Procedure: as §5
# CDK2/cyclinA = molecular target: T3, CDK2/cyclinA (Homo sapiens, UniProt P24941); test: Kinase profile assay (Millipore); assay type: biochemical; conditions: 5 μM
# T3 construct: purchased Millipore
# Procedure: as §5
# FGFR1 = molecular target: T4, FGFR1 (Homo sapiens, UniProt P11362); test: Kinase profile assay (Millipore); assay type: biochemical; conditions: read-out: kinase activity compared with the control
# T4 construct: purchased Millipore
# Procedure: as §5
# GSK3 beta = molecular target: T5, GSK3 beta (Homo sapiens, UniProt P49841); test: Kinase profile assay (Millipore); assay type: biochemical; conditions: read-out: kinase activity compared with the control
# T5 construct: purchased Millipore
# T5 sequence (P49841 whole entry, species assumed): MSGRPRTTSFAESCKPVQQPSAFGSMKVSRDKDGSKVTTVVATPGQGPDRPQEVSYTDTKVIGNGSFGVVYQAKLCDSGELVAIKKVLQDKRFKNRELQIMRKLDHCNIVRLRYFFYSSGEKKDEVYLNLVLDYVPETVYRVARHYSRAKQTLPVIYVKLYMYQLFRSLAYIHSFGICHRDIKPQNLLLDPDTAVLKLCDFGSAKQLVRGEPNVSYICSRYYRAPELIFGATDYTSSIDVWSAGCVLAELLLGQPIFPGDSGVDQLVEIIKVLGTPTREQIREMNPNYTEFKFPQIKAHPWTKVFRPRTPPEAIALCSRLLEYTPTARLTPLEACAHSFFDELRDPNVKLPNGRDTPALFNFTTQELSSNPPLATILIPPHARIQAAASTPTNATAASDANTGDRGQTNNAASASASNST
# Procedure: as §5
# IKK alpha = molecular target: T6, IKK alpha (Homo sapiens, UniProt O15111); test: Kinase profile assay (Millipore); assay type: biochemical; conditions: read-out: kinase activity compared with the control
# T6 construct: purchased Millipore
# Procedure: as §5
# LKB1 = molecular target: T7, LKB1 (Homo sapiens, UniProt Q15831); test: Kinase profile assay (Millipore); assay type: biochemical; conditions: read-out: kinase activity compared with the control
# T7 construct: purchased Millipore
# Procedure: as §5
# MAPK1 = molecular target: T8, MAPK1 (Homo sapiens, UniProt P27361); test: Kinase profile assay (Millipore); assay type: biochemical; conditions: read-out: kinase activity compared with the control
# T8 construct: purchased Millipore
# T8 sequence (P27361 whole entry): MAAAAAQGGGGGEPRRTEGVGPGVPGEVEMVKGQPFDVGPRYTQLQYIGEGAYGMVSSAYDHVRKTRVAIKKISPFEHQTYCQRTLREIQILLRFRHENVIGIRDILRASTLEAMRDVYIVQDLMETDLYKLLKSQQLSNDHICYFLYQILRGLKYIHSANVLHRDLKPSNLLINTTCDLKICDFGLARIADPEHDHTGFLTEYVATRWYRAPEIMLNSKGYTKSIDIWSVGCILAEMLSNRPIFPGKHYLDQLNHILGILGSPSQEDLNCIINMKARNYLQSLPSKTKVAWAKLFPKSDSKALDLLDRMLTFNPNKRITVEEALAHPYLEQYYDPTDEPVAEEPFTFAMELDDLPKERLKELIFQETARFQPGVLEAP
# Procedure: as §5
# PI3-K gamma = PI3-K gamma (Homo sapiens, UniProt P48736); test: Kinase profile assay (Millipore); assay type: biochemical; conditions: read-out: kinase activity compared with the control
# Chain of PI3-K gamma (P48736 whole entry, species assumed): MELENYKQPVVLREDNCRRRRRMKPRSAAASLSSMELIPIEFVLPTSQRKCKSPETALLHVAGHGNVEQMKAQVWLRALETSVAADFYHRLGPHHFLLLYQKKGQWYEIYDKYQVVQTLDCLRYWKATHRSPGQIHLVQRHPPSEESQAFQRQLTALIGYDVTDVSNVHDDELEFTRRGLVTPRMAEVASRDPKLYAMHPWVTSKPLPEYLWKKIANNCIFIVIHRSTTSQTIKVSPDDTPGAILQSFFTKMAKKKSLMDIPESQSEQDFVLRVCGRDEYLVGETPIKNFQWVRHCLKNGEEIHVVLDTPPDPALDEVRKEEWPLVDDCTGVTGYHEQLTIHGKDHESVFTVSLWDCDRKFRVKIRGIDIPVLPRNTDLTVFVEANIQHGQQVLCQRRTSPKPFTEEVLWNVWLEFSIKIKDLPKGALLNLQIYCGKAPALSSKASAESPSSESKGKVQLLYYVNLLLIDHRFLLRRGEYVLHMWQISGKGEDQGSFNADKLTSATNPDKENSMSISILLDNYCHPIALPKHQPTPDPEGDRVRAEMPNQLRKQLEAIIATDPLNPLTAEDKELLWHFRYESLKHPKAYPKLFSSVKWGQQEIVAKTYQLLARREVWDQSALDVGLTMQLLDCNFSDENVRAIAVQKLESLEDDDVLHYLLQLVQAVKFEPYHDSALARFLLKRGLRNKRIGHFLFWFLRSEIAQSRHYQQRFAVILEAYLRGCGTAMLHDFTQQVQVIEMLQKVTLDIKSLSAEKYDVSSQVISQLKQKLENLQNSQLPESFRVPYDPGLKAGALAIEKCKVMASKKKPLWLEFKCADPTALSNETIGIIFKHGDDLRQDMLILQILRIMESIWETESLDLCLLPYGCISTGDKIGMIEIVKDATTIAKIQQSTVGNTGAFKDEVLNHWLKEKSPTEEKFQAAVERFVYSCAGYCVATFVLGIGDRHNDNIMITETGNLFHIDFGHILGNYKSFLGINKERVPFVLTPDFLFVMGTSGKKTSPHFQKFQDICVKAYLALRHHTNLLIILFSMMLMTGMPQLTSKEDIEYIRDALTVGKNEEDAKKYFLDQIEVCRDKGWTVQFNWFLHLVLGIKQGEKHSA
# Procedure: as §5
# c-RAF = molecular target: T9, c-RAF (Homo sapiens, UniProt P04049); test: Kinase profile assay (Millipore); assay type: biochemical; conditions: read-out: kinase activity compared with the control
# T9 construct: purchased Millipore
# T9 sequence (P04049 whole entry, species assumed): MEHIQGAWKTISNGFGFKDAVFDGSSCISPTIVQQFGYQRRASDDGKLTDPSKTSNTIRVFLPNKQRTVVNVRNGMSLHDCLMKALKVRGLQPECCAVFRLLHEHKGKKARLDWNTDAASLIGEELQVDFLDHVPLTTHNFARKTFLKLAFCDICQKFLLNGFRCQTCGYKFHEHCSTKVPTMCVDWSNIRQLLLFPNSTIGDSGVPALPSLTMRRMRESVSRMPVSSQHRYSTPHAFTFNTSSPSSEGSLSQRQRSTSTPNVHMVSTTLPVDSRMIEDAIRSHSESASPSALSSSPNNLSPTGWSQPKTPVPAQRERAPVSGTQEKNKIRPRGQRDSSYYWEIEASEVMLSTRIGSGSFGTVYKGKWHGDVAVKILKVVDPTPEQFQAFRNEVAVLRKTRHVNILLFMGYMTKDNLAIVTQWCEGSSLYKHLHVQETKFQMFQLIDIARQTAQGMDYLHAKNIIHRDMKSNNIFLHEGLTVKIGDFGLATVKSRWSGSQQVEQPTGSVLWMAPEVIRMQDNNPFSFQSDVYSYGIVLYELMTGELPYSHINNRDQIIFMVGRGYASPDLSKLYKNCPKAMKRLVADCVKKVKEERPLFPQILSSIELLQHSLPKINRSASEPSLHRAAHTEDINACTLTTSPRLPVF
# Procedure: as §5
# Chain of Aurora B (Q96GD4 whole entry): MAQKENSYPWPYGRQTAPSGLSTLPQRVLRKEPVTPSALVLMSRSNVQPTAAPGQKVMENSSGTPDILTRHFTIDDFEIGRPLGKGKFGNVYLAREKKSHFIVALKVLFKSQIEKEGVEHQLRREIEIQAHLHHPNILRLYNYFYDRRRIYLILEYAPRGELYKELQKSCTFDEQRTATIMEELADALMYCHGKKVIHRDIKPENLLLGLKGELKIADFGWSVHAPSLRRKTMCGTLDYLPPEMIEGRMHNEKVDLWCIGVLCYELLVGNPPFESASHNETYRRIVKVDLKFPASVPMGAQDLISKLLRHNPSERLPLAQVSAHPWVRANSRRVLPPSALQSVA
compound,measurement,setting,value
O=C(/C=C/c1ccc2c(c1)OCO2)/C=C1/C(=O)Nc2ccccc21 [Compound 1],inhibition at 0.05 µM,Aurora B; 0.05 μM,22%
same,inhibition at 0.1 µM,Aurora B; 0.1 μM,50%
same,histone H3 (Ser10) phosphorylation band by Aurora B,Aurora B; 1 μM,only a weak histone H (Ser10) band
same,concentration required for Aurora B inhibition,Aurora B; discussion statement,≤ 1 µM
same,anchorage-independent growth of HCT116 cells (colony formation),HCT116 cells,best efficiency
same,inhibition at 0.05 µM,"HCT116 p53−/− cells; HCT-116, 0.05 μM",40%
same,inhibition at 0.1 µM,"HCT116 p53−/− cells; HCT-116, 0.1 μM",> 95%
same,number of cells occupying the G2/M phase,A549 cells,increase
same,number of cells occupying the G2/M phase,H520 cells,increase
same,inhibition at 0.5 µM,[1],< 40%
same,inhibition at 5 µM,Akt2; 5 μM,52%
same,concentration inhibiting Akt2 kinase activity in vitro,Akt2; discussion statement,≥ 1 µM
same,effect on the phosphorylation of Akt or its downstream signaling molecules,[2],no effect
same,effect on the phosphorylation of Akt or its downstream signaling molecules,[3],no effect
same,remaining activity at 5 µM,AMPK-alpha1,96%
same,remaining activity at 5 µM,AMPK-alpha2,90%
same,kinase activity compared with the control,CDK2/cyclinA,98
same,remaining activity at 5 µM,FGFR1,86%
same,remaining activity at 5 µM,GSK3 beta,94%
same,remaining activity at 5 µM,IKK alpha,83%
same,remaining activity at 5 µM,LKB1,87%
same,remaining activity at 5 µM,MAPK1,100%
same,remaining activity at 5 µM,PI3-K gamma,100%
same,remaining activity at 5 µM,c-RAF,87%
